Measured values as given in US11820782B2, “Salt forms of amino pyrazine purine based selective kinase inhibitor” (FTG BIO LLC, priority 2018, dated 2023).
Read-outs that look alike come from different tables or passages of the source.

Key:
Hepatic clearance, mouse = format: in vitro ADME
[1] = Microsomal stability, MLM; format: in vitro ADME; details: 3 μM (n = 3), mice liver microsomes
Experimental: (§1) All in vitro experiments like protein binding, microsomal stability, cell cytotoxicity were performed as per study protocols of respective experiments.

[2] = Hygroscopicity (dynamic vapor sorption); format: physicochemical
Experimental: Sorption isotherms were obtained using a VTI-SA+-moisture sorption analyzer from TA instruments. The sample temperature was maintained at 25° C. by the instrument controls. The humidity was controlled by mixing the streams of dry and wet nitrogen, with a total flow rate of 200 mL/minute. The weight change of the sample as a function of % RH was constantly monitored by microbalance.
Typically, 5 to 20 mg of the sample was weighed under ambient conditions in a tared mesh stainless steel basket. The sample was loaded and unloaded at 40% RH and 25° C. A moisture sorption isotherm was performed as outlined. The standard isotherm was performed at 25° C. at 10% RH intervals over a 0 to 90% RH range. Sample was dried at 40° C. from ambient room conditions to 0% RH.

Hepatic clearance, rat = format: in vitro ADME
[3] = Intravenous and per oral pharmacokinetics in male Sprague Dawley rats; format: in vivo, Sprague Dawley (SD) rats; details: for Bioavailability (% F): PO dose (10 mg/kg) vs IV 5 mg/kg
Experimental: The husbandry conditions were maintained as described in animal facility SOPs during the study period. Animals procured were quarantined for 7 days followed by acclimatization for 5 days. The study was carried out for two days. Male Balb/c mice of age 10-12 weeks (18-25 g) and male Sprague Dawley rats 8-10 weeks (220-280 g) were used. The food was with held for a period of 4-12 hr prior to dosing and returned to all animals 4h post dosing and water supplied ad libitum. The doses of FT1518 were as follows: Mice: 10 mg/kg intravenous (i.v) and 50 mg/kg oral (p.o); rat—5 mg/kg intravenous (i.v) and 10 mg/kg oral (p.o). The formulation used in i.v and p.o studies were 10% dimethylsulfoxide (DMSO)+30% polyethyleneglycol 400 (PEG400)+60% water and 0.5% methylcellulose (MC)+0.1% tween 80. Blood was collected at the predetermined time points in mice (cardiac puncture) and Jugular vein (rats) over a period of 24h in eppendorf tubes containing K2EDTA as anticoagulant. The plasma was isolated from the blood and stored at −80° C. until bioanalysis.
Intravenous and Per Oral Pharmacokinetic Profile of FT1518 (Base); FT1518-Esylate Salt and FT1518-Oxalate Salt in Male Sprague Dawley (SD) Rats Species: SD rats Gender: Male Dose: IV (5 mg/kg), Single dose • PO (10 mg/kg), single dose Formulation: • IV—DMSO: PEG400:Water (10:30:60 v/v) • PO— 0.5% methylcellulose and 0.1% Tween 80 in water Sampling Time Points: • IV: 5 min, 15 min, 30 min, 1 h, 2, 4, 8 and 24 h post dose • PO: 10 min, 15 min, 30 min, 1 h, 2, 4, 8 and 24 h post dose. PK analysis: Phoenix software (Pharsight product). Noncompartmental Analysis (NCA) was used to estimate the PK parameters

[4] = Plasma protein binding, human; format: in vitro ADME; details: human, plasma, 10 μM (n = 4); read-out: % Bound, Human Plasma (converted)
Experimental: as §1

[5] = Solid state stability of physical forms at 40° C./75% RH by pXRD; format: physicochemical; details: 40° C./75% RH open, 7 days
Experimental: Physical forms crystallized from various methods of crystallization were exposed to 40° C./75% RH for 7 days in open condition to understand the physical stability of the new physical forms in the presence of heat and humidity and also to know if there is any form conversion in the stable forms of Esylate and oxalate salts of FT-1518.

Hepatic clearance, human = format: in vitro ADME
[6] = Plasma protein binding, mouse; format: in vitro ADME; details: mouse, plasma, 10 μM (n = 4); read-out: % Bound, Mouse plasma (converted)
Experimental: as §1

Hepatic clearance, dog = format: in vitro ADME; details: dogs
Caco-2 [7] = test: Caco-2 permeability
Caco-2 permeability = details: human, Caco-2
[8] = 1 week stability of shortlisted salts at 40° C./75% RH, open; format: physicochemical; details: for pH of 2% w/v aqueous dispersion/solution / state of 2% w/v aqueous dispersion/solution: 2% w/v in water; for % purity / XRD: after 7 days at 40° C./75% RH, open; for % purity: HPLC; for XRD: physical form vs initial
[9] = Qualitative solubility of FT1518 in aqueous media containing counterions; format: physicochemical
From the text: Solubility of FT-1518 was checked in various counter ion solutions before performing salt screening to obtain an estimate of feasibility of salt formation in the respective counter ions.

Caco-2 [10] = tested on: Caco-2
prostate cancer (PC-3) = test: In vitro assay, PC-3; format: cell-based; details: prostate cancer (PC-3) line
Experimental: as §1

[11] = normal room temperature / ambient conditions
[12] = sample from cooling crystallization in ethanol
[13] = sample from slurry transformation in ethyl acetate
[14] = sample from solvent evaporation in acetonitrile
[15] = sample from solvent evaporation in ethanol
[16] = IV dose (5 mg/kg), single dose, male SD rats
[17] = PO dose (10 mg/kg), single dose, male SD rats, 10 mg/kg

Structure (SMILES)	hepatic clearance in terms of liver blood flow (Hepatic clearance, mouse)	hygroscopicity [2, 11]	hepatic clearance in terms of liver blood flow (Hepatic clearance, rat)	Bioavailability (% F) ([3]; male SD rats) [%]	solid state stability (pXRD form) [5, 12]	solid state stability (pXRD form) [5, 13]	solid state stability (pXRD form) [5, 14]	solid state stability (pXRD form) [5, 15]	hepatic clearance in terms of liver blood flow (Hepatic clearance, human)	hepatic clearance in terms of liver blood flow (Hepatic clearance, dog)	permeability in Caco-2 assay (Caco-2 [7])	pH of 2% w/v aqueous dispersion/solution [8]	state of 2% w/v aqueous dispersion/solution [8]	% purity [8] [%]	XRD [8]	Invitro T1/2, MLM [1] [min]	Cmax [3, 17] [ng/mL]	other results
CCC(CC)n1cnc2c(-c3cnc(N)cn3)nc(N3CC4CCC(C3)O4)nc21 [FT-1518-Esylate]	high	non-hygroscopic	low	> 100	remained the same	40 °C slurry converted	Same as initial salt	formed Same as initial salt	moderate	low	✓ FT1518 base, FT1518-Esylate and FT1518-Oxalate showed high permeability in Caco-2 assay. Efflux ratio of <2 indicates compounds that the compounds may not be substrates of P-gp or BCRP efflux transporters	2.1	soluble	98.07	Same as initial form	–	–	half-life at 3 μM ([1]; mouse, mouse liver microsomes, read-out: Invitro T1/2, MLM): 24 min; AUC ([3]; male, Sprague Dawley, rat, plasma, po, 10 mg/kg, PO dose (10 mg/kg), single dose, male SD rats, read-out: AUC (AU C0^.oo)): 9680 ng·h/mL; Cmax ([3]; male, Sprague Dawley, rat, plasma, po, 10 mg/kg, PO dose (10 mg/kg), single dose, male SD rats, read-out: Cmax): 1770 ng/mL; fraction unbound at 10 μM [4]: 0.0298; solid state stability (pXRD form) ([5]; sample from slurry transformation in THF: toluene (1:1)): Same as initial salt; solid state stability (pXRD form) ([5]; sample from slurry transformation in THF): Same as initial salt; solid state stability (pXRD form) ([5]; sample from slurry transformation in toluene): Same as initial salt; solid state stability (pXRD form) ([5]; sample from solvent evaporation in THF:water (9:1)): Same as initial salt; solid state stability (pXRD form) ([5]; sample from solvent evaporation in methanol): Same as initial salt; fraction unbound at 10 μM [6]: 0.0854; efflux ratio at 10 μM (Caco-2 permeability): 1.8; Papp A→B at 10 μM (Caco-2 permeability; Caco-2, Apparent permeability (Papp) A to B, 10 μM (n = 3)): 21.6 ± 0.887 ×10⁻⁶ cm/s; Papp B→A at 10 μM (Caco-2 permeability; Caco-2, Apparent permeability (Papp) B to A, 10 μM (n = 3)): 38.3 ± 0.426 ×10⁻⁶ cm/s
CCC(CC)n1cnc2c(-c3cnc(N)cn3)nc(N3CC4CCC(C3)O4)nc21 [FT-1518 base]	–	non-hygroscopic	–	44	–	–	–	–	–	–	–	–	–	97.82	Same as initial form	43	1592	Solubility ([9]; 0.04N phthalic acid): <1000 µg/mL; Solubility ([9]; 0.1N H2SO4): >100000 µg/mL; Solubility ([9]; 0.1N adipic acid): <1000 µg/mL; hygroscopicity ([2]; sorption cycle 0 to 95% RH at 25° C.): slightly hygroscopic. As there was no; moisture uptake ([2]; up to 70% RH, 25° C.): There was about <2% moisture uptake up; clearance as % of SD rat liver blood flow ([3]; IV 5 mg/kg, SD rats): ~42%; AUC0-∞ [3, 16]: 3905 ± 1334 ng·h/mL; Cl [3, 16]: 23.3 ± 10 mL/min/kg; Tmax ([3]; PO dose (10 mg/kg), single dose, male SD rats): 30 min; AUC (AU C0^.oo) [3, 17]: 3422 ± 684 ng·h/mL; Apparent permeability (Papp) A to B (Caco-2 [10]): 21.571 ± 1.767 ×10⁻⁶ cm/s; Apparent permeability (Papp) B to A (Caco-2 [10]): 30.94 ± 0.428 ×10⁻⁶ cm/s; permeability in Caco-2 assay (Caco-2 [10]): ✓ FT1518 base, FT1518-Esylate and FT1518-Oxalate showed high permeability in Caco-2 assay. Efflux ratio of <2 indicates compounds that the compounds may not be substrates of P-gp or BCRP efflux transporters
CCC(CC)n1cnc2c(-c3cnc(N)cn3)nc(N3CC4CCC(C3)O4)nc21 [FT-1518-Oxalate]	moderate	non-hygroscopic	moderate	68	Same as initial salt	Same as initial	Same as initial salt	Partial conversion of new	moderate	low	✓ FT1518 base, FT1518-Esylate and FT1518-Oxalate showed high permeability in Caco-2 assay. Efflux ratio of <2 indicates compounds that the compounds may not be substrates of P-gp or BCRP efflux transporters	2.6	dispersion	97.04	Same as initial form	46	1980	IC50 (prostate cancer (PC-3)): 183 µM; solid state stability (pXRD form) ([5]; sample from cooling crystallization in tetrahydrofuran): Same as initial salt; solid state stability (pXRD form) ([5]; sample from slurry transformation in ethyl acetate: water (9:1)): remained same; solid state stability (pXRD form) ([5]; sample from slurry transformation in hexane): Same as initial; solid state stability (pXRD form) ([5]; sample from solvent evaporation in acetone): Same as initial salt form; solid state stability (pXRD form) ([5]; sample from solvent evaporation in tetrahydrofuran): Major conversion of new; Apparent permeability (Papp) A to B (Caco-2 [7]; 10 μM (n = 3), Caco-2): 23.207 ± 1.801 ×10⁻⁶ cm/s; Apparent permeability (Papp) B to A (Caco-2 [7]; 10 μM (n = 3), Caco-2): 29.203 ± 1.482 ×10⁻⁶ cm/s
